Data as given in paper PMC5519559, “Structure-Based Discovery of Small Molecule Inhibitors of Cariogenic Virulence” (Scientific Reports, 2017).

Legend:
GtfC [1] = target: T1, GtfC (Streptococcus mutans, UniProt P13470); test: SDS-PAGE in-gel zymographic glucan-production assay at […]; format: cell-based; design: native GtfC from culture supernatant of S. mutans GtfBD double mutant; conditions: read-out: % inhibition at 25 μM
Target sequence in this assay (P13470 35-1455): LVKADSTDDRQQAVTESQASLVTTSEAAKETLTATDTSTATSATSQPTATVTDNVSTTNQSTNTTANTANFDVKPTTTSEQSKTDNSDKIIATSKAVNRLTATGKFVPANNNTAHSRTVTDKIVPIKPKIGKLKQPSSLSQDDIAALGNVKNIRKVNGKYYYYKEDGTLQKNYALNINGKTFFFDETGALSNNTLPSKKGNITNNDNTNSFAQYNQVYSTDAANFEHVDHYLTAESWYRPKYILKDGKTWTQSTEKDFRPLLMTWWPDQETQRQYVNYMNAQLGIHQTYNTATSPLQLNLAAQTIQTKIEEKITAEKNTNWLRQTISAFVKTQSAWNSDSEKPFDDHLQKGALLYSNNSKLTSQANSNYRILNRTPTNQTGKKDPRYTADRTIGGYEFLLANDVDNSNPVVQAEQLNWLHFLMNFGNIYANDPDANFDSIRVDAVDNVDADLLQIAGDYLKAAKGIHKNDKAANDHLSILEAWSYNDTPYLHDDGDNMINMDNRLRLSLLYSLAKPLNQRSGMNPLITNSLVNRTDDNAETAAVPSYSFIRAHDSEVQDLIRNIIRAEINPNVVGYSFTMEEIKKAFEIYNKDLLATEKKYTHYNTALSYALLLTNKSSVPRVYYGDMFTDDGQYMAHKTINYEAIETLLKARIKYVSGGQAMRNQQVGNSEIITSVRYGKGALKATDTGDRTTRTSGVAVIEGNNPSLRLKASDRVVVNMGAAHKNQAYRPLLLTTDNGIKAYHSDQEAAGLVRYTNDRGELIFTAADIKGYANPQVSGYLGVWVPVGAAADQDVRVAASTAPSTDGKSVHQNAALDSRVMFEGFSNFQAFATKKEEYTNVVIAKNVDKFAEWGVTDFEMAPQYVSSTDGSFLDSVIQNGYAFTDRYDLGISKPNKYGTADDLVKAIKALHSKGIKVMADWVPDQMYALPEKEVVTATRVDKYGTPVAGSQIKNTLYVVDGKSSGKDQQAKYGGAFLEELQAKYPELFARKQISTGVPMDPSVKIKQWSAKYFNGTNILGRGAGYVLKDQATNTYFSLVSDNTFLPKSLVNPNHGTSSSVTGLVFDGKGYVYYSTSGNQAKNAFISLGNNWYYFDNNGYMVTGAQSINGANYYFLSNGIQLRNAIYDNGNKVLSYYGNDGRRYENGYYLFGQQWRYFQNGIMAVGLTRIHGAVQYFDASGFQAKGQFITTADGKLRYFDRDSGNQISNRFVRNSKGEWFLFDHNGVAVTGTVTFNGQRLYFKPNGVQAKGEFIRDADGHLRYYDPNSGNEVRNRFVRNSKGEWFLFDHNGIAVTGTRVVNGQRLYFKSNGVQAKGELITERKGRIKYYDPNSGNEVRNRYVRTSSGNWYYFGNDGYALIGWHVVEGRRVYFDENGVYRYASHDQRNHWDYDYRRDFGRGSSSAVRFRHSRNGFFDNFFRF

GtfB [2] = target: T2, GtfB (Streptococcus mutans, UniProt P08987); test: as above; format: cell-based; design: native GtfB from culture supernatant of S. mutans GtfCD double mutant; conditions: read-out: % inhibition at 25 μM
Target sequence in this assay (P08987 35-1476): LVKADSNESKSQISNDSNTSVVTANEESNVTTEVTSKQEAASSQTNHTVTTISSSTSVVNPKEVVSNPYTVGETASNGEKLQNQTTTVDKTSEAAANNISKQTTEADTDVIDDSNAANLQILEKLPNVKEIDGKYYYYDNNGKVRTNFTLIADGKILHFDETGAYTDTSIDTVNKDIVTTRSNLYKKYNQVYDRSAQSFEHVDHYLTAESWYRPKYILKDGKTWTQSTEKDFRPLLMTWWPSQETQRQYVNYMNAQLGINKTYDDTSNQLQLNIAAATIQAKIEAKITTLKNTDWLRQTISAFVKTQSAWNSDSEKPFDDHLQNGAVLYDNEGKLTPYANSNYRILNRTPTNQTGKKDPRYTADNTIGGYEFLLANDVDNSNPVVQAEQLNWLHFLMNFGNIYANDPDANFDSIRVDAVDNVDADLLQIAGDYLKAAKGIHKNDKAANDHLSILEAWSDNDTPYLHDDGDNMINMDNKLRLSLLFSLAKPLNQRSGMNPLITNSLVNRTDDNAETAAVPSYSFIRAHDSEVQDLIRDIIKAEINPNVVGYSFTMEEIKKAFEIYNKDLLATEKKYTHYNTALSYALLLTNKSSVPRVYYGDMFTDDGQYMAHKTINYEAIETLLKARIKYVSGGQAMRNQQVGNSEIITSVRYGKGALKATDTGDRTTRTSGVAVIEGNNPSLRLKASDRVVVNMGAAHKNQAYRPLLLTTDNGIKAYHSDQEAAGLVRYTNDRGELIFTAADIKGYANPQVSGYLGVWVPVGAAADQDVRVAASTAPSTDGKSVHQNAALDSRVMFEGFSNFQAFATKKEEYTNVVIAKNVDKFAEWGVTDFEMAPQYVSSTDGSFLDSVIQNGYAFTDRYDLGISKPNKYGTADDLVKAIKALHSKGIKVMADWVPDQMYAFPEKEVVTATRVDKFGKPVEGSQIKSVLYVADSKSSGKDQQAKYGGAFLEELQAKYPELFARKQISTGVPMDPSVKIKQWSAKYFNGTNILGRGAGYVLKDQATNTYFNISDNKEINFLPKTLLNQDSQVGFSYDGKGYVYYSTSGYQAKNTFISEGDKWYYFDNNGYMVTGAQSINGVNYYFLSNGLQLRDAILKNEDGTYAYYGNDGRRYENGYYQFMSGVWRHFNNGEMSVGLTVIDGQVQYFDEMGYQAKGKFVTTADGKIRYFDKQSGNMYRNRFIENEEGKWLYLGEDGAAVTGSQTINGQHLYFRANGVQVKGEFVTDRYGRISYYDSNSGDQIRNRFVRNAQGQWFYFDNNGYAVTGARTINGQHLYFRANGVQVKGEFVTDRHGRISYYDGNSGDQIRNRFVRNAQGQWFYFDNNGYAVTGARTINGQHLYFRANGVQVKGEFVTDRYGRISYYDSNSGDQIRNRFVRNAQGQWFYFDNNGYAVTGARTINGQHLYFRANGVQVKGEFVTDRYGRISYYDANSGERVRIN

GtfB [3] = target: T2, GtfB; test: Binding study (Octet, details in supplement); weak inactive analog; design: catalytic domain, residues 268 aa–1074 aa
Target sequence in this assay (P08987 268-1074): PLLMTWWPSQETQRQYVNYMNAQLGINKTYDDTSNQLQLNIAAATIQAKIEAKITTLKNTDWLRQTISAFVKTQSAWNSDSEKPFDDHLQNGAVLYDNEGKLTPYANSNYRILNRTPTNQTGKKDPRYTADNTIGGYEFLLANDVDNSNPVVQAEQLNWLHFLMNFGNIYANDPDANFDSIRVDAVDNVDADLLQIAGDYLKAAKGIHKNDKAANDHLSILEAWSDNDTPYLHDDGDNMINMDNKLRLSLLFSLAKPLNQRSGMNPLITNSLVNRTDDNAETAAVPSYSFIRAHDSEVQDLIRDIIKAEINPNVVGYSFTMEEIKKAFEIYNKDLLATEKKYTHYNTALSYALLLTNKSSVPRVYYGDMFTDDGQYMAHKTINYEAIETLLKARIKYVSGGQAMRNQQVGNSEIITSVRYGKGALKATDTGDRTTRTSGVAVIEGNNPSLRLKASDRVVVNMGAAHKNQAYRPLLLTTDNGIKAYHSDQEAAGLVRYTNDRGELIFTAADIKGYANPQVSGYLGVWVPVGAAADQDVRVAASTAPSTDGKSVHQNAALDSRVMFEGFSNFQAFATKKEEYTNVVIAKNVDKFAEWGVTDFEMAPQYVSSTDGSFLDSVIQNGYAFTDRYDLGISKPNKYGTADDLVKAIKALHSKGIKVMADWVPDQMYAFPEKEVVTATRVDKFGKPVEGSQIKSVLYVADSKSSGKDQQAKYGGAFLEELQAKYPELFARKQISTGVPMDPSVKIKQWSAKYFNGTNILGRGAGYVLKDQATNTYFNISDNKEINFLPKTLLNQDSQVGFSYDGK

GtfC [4] = target: T1, GtfC; test: Bio-layer interferometry (OctetRed96), […] binding model; supported by zymographic inhibition ([…] at […]); design: his-tagged catalytic domain, residues 295 aa–1103 aa
Target sequence in this assay (P13470 295-1103): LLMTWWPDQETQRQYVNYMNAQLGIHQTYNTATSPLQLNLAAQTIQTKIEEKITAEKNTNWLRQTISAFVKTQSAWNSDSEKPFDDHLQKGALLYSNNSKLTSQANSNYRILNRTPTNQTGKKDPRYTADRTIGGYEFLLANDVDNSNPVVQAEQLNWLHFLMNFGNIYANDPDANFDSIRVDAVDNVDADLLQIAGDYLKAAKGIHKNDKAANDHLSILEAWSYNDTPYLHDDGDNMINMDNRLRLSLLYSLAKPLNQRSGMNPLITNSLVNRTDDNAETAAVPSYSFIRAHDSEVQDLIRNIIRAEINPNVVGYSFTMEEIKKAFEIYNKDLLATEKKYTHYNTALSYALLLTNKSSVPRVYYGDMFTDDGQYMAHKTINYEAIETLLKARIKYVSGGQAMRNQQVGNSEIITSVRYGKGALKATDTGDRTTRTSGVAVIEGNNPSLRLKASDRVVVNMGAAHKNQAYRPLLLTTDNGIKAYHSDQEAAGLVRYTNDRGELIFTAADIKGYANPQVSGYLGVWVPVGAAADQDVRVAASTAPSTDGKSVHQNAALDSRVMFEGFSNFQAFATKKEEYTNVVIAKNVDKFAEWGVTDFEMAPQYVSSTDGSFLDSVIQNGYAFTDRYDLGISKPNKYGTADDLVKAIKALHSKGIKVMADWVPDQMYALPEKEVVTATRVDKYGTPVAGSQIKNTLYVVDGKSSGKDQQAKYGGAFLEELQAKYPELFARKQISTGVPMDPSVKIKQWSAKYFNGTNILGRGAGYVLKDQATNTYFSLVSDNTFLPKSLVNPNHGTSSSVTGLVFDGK

GtfB [5] = target: T2, GtfB; test: as above; design: his-tagged catalytic domain, residues 268 aa–1074 aa
Target sequence in this assay (P08987 268-1074): as the sequence (P08987 268-1074) above

O=C(c1ccc(F)cc1)c1ccc(-c2[nH]c(-c3ccc([N+](=O)[O-])cc3O)nc2-c2ccccc2)cc1 [#G16]
inhibition at 25 µM (GtfC [1]): ~70%
inhibition at 25 µM (GtfB [2]): ~60%

O=C(Nc1ccccc1)c1cc2cc([N+](=O)[O-])ccc2s1 [#G43-D]
Kd (GtfB [3]): 68 µM

NC(=O)c1ccccc1NC(=O)c1cc2cc([N+](=O)[O-])ccc2s1 [#G43]
Kd (GtfC [4]): 0.0469 µM
Kd (GtfB [5]): 3.7 µM
